In patent US9440933B2, “Azole derivative, method for producing same, intermediate compound, and agricultural or horticultural chemical agent and industrial material protecting agent” (KUREHA CORPORATION, priority 2011, dated 2016):

What was measured:
[1] = system: wheat leaf rust-causing microbe; assay: Wheat leaf rust-controlling activity (foliar spray, pot test); assay type: in vivo, Puccinia recondita; settings: Concentration 25 g/ha; wettable powder sprayed on wheat (Norin No. 61), 9 to 14 days after inoculation
[2] = system: Wheat fusarium blight-causing microbe (Fusarium graminearum); assay type: cell-based; settings: 50 mg/L
[3] = system: Gray mold-causing microbe (Botrytis cinerea); assay: Antimicrobial activity to various pathogenic microbes: B.c; settings: 50 mg/L
[4] = system: Rice blast-causing microbe (Pyricularia oryzae); assay type: cell-based; settings: 50 mg/L
[5] = system: wheat powdery mildew-causing microbes; assay: Controlling activity to wheat powdery mildew of seed treatment (pot test); assay type: in vivo, Erysiphe graminis f. sp tritici; settings: 2 mg in DMSO applied to wheat seeds 1 g, 14 to 28 days after seeding
Method: Controlling activity to wheat powdery mildew was examined in a pot test. Each of the inventive compounds […]-53, and a comparative compound (1) was weighed in an amount of 2 mg and dissolved in DMSO (18 μl). The solution thus prepared was applied to wheat seeds 1 g in a vial, 8 wheat seeds were seeded in a 80 cm^2 pot. The wheat was grown, as water was supplied from blow, in a greenhouse where wheat powdery mildew-causing microbes are present abundantly. The incidence rate was determined and the controlling rate and additionally the controlling index calculated 14 to 28 days after seeding. The controlling rate was calculated and the wheat powdery mildew controlling index determined according to the following equation: Controlling rate=(1-Incidence rate in treated region/Incidence rate in non-treated region)×100(%) [table]

[6] = system: Barley scald-causing microbe (Rhynchosporium secalis); assay: Antimicrobial activity to various pathogenic microbes: R.sec; settings: 50 mg/L
Method: (§1) An inventive compound was dissolved in dimethylsulfoxide 2 ml. The solution 0.6 ml was added to a PDA medium (potato-dextrose-agar medium) 60 ml at around 60° C.
(§2) A flat plate containing a test microbe (wheat leaf blight-causing microbe) cultured separately was punched into pieces with a cork borer having a diameter of 4 mm and the circular plate obtained was placed on the flat plate media containing the chemical described above. The plates were cultured at 25° C. for 14 days after inoculation and the diameter of the microbial colony was determined. Hyphal expansion-inhibiting rate was calculated according to the following equation: R=100(dc−dt)/dc (wherein, R: hyphal expansion-inhibiting rate (%), dc: diameter of microbial colony on non-treated flat plate, dt: diameter of microbial colony on chemically-treated flat plate).
(§3) In this Test Example, the antimicrobial activity of the inventive compounds to various plant disease-causing fungi and industrial material-eroding microorganisms was studied by the method described in Example 1.
(§4) The results thus obtained were evaluated in 5 stages according to the criteria below:
Barley scald-causing microbe (Rhynchosporium secalis) R.sec

[7] = system: Wheat glume blotch-causing microbe (Phaeosphaeria nodorum); assay: Antimicrobial activity to various pathogenic microbes: P.n; settings: 50 mg/L
[8] = system: Wheat eye spot-causing microbe (Pseudocercoporella herpotrichoides); assay: Antimicrobial activity to various pathogenic microbes: P.h; settings: 50 mg/L
Method: as §1
The plates were cultured at 25° C. for 14 days after inoculation and the diameter of the microbial colony was determined. Hyphal expansion-inhibiting rate was calculated according to the following equation: R=100(dc−dt)/dc (wherein, R: hyphal expansion-inhibiting rate (%), dc: diameter of microbial colony on non-treated flat plate, dt: diameter of microbial colony on chemically-treated flat plate).
as §4
Wheat eye spot-causing microbe (Pseudocercoporella herpotrichoides) P.h

[9] = system: Cucumber Fusarium wilt-causing microbe (Fusarium oxysporum); assay: Antimicrobial activity to various pathogenic microbes: F.c; settings: 50 mg/L
Method: as §1, §2, §4

wheat = assay: Damage to wheat (growth inhibition) by seed treatment (pot test); settings: 2 mg in DMSO applied to wheat seeds 1 g, 14 to 28 days after seeding, larger index = smaller damage
[10] = system: wheat leaf blight-causing microbe; assay: Antimicrobial activity to wheat leaf blight-causing microbe (PDA plate, hyphal expansion inhibition); assay type: cell-based, Septoria tritici; settings: 336 h, PDA medium, 25° C., 14 days; for inhibition at 50 µg/mL: Concentration 50 mg/L, read-out: Growth inhibition
Method: In this Test Example, antimicrobial activity of the inventive compounds to wheat leaf blight-causing microbe was determined and compared with that of the comparative compound (1).

[11] = system: Sclerotinia rot-causing microbe (Sclerotinia sclerotiorum); assay: Antimicrobial activity to various pathogenic microbes: S.s; settings: 50 mg/L
Method: as §1, §2, §4
Sclerotinia rot-causing microbe (Sclerotinia sclerotiorum) S.s

[12] = system: Apple alternaria blotch-causing microbe (Alternaria alternata); assay: Antimicrobial activity to various pathogenic microbes: A.m; settings: 50 mg/L
Method: as §1, §2, §3, §4
Apple alternaria blotch-causing microbe (Alternaria alternata) A.m

[13] = system: Rice bakanae disease-causing microbe (Gibberella fujikuroi); assay: Antimicrobial activity to various pathogenic microbes: G.f; settings: 50 mg/L
Method: as §1, §2, §4

[14] = system: Barley loose smut-causing microbe (Ustilago nuda); assay: Antimicrobial activity to various pathogenic microbes: U.n; settings: 50 mg/L

Row | SMILES | Controlling index [1] | Growth inhibition (hyphal expansion-inhibiting rate grade) F.g [2] | Growth inhibition (hyphal expansion-inhibiting rate grade) B.c [3] | Growth inhibition (hyphal expansion-inhibiting rate grade) P.o [4] | Controlling index Wheat powdery mildew [5] | Growth inhibition (hyphal expansion-inhibiting rate grade) R.sec [6] | Growth inhibition (hyphal expansion-inhibiting rate grade) P.n [7] | Growth inhibition (hyphal expansion-inhibiting rate grade) P.h [8] | Growth inhibition (hyphal expansion-inhibiting rate grade) F.c [9] | Damage index Growth inhibition (wheat) | inhibition at 50 µg/mL [10] | inhibition at 1.25 µg/mL ([10]; test sample concentration 1.25 mg/L, read-out: hyphal expansion-inhibiting rate) | Growth inhibition (hyphal expansion-inhibiting rate grade) S.s [11] | Growth inhibition (hyphal expansion-inhibiting rate grade) A.m [12] | Growth inhibition (hyphal expansion-inhibiting rate grade) G.f [13] | Growth inhibition (hyphal expansion-inhibiting rate grade) U.n [14]
1 | CCCOC(=O)[C@]1(C)CC[C@@H](Cc2ccc(Cl)cc2)[C@]1(O)Cn1cncn1 (racemic) [Compound I-6, n-propyl-(1RS,2RS,3SR)-3-(4-chlorobenzyl)-2-hydroxy-1-methyl-2-(1H-1,2,4-triazol-1-ylmethyl)cyclopentanecarboxylate] | 5 (81 to 100) | 5 (hyphal expansion-inhibiting rate: 80% or more) | 5 (hyphal expansion-inhibiting rate: 80% or more) | 5 (hyphal expansion-inhibiting rate: 80% or more) | 5 (Controlling rate: 40 or more) | 5 (hyphal expansion-inhibiting rate: 80% or more) | 5 (hyphal expansion-inhibiting rate: 80% or more) | 5 (hyphal expansion-inhibiting rate: 80% or more) | 5 (hyphal expansion-inhibiting rate: 80% or more) | 3 (20% or more and less than 40%) | > 80% | ≥ 80% | 5 (hyphal expansion-inhibiting rate: 80% or more) | 5 (hyphal expansion-inhibiting rate: 80% or more) | 5 (hyphal expansion-inhibiting rate: 80% or more) | 5 (hyphal expansion-inhibiting rate: 80% or more)
2 | CCOC(=O)[C@]1(C)CC[C@H](Cc2ccc(Cl)cc2)[C@@]1(O)Cn1cncn1 (racemic) [Compound I-133, ethyl-(1RS,2SR,3RS)-3-(4-chlorobenzyl)-2-hydroxy-1-methyl-2-(1H-1,2,4-triazol-1-ylmethyl)cyclopentanecarboxylate] | 5 (81 to 100) | 5 (hyphal expansion-inhibiting rate: 80% or more) | 5 (hyphal expansion-inhibiting rate: 80% or more) | 5 (hyphal expansion-inhibiting rate: 80% or more) | 5 (Controlling rate: 40 or more) | 5 (hyphal expansion-inhibiting rate: 80% or more) | 5 (hyphal expansion-inhibiting rate: 80% or more) | 5 (hyphal expansion-inhibiting rate: 80% or more) | 5 (hyphal expansion-inhibiting rate: 80% or more) | 4 (1% or more and less than 20%) | > 80% |  | 5 (hyphal expansion-inhibiting rate: 80% or more) | 5 (hyphal expansion-inhibiting rate: 80% or more) | 5 (hyphal expansion-inhibiting rate: 80% or more) | 5 (hyphal expansion-inhibiting rate: 80% or more)
3 | CCCOC(=O)[C@]1(C)CC[C@H](Cc2ccc(Cl)cc2)[C@@]1(O)Cn1cncn1 (racemic) [Compound I-136, n-propyl-(1RS,2SR,3RS)-3-(4-chlorobenzyl)-2-hydroxy-1-methyl-2-(1H-1,2,4-triazol-1-ylmethyl)cyclopentanecarboxylate] | 5 (81 to 100) | 5 (hyphal expansion-inhibiting rate: 80% or more) | 5 (hyphal expansion-inhibiting rate: 80% or more) | 5 (hyphal expansion-inhibiting rate: 80% or more) | 5 (Controlling rate: 40 or more) | 5 (hyphal expansion-inhibiting rate: 80% or more) | 5 (hyphal expansion-inhibiting rate: 80% or more) | 5 (hyphal expansion-inhibiting rate: 80% or more) | 5 (hyphal expansion-inhibiting rate: 80% or more) | 4 (1% or more and less than 20%) | > 80% |  | 5 (hyphal expansion-inhibiting rate: 80% or more) | 5 (hyphal expansion-inhibiting rate: 80% or more) | 5 (hyphal expansion-inhibiting rate: 80% or more) | 5 (hyphal expansion-inhibiting rate: 80% or more)
4 | C=CCOC(=O)[C@]1(C)CC[C@@H](Cc2ccc(Cl)cc2)[C@]1(O)Cn1cncn1 (racemic) [Compound I-4, allyl-(1RS,2RS,3SR)-3-(4-chlorobenzyl)-2-hydroxy-1-methyl-2-(1H-1,2,4-triazol-1-ylmethyl)cyclopentanecarboxylate] | 5 (81 to 100) | 5 (hyphal expansion-inhibiting rate: 80% or more) | 5 (hyphal expansion-inhibiting rate: 80% or more) | 5 (hyphal expansion-inhibiting rate: 80% or more) |  | 5 (hyphal expansion-inhibiting rate: 80% or more) | 5 (hyphal expansion-inhibiting rate: 80% or more) | 5 (hyphal expansion-inhibiting rate: 80% or more) | 5 (hyphal expansion-inhibiting rate: 80% or more) |  | > 80% |  | 5 (hyphal expansion-inhibiting rate: 80% or more) | 5 (hyphal expansion-inhibiting rate: 80% or more) | 5 (hyphal expansion-inhibiting rate: 80% or more) | 5 (hyphal expansion-inhibiting rate: 80% or more)
